This test has as its target T1, BrpR.
T1 construct: His6-tagged BrpR (brpR gene on pET-28a(+), expressed in E. coli BL21 (DE3))
The test is described as follows: microscale thermophoresis (MST) with labeled purified His6-BrpR; supported by EMSA inhibition of promoter DNA binding. On the set-up: species or system Vibrio vulnificus. On the technique in general: MST reads how a fluorescent partner responds to local heating, with and without ligand.

A word on the Kd: it is the concentration at which binding is half-saturated. High values mean weaker binding, low ones tighter binding. `CCCNC(=O)CC(=O)Nc1cc(F)ccc1Cl` [175C05, N1-(2-chloro-5-fluorophenyl)-N3-propylmalonamide] displayed a Kd of 7.14 µM.

Values taken from PMC11416940, “Identification and characterization of a small molecule BFstatin inhibiting BrpR, the transcriptional regulator for biofilm formation of Vibrio vulnificus” (Frontiers in Microbiology, 2024).
